Data reported in patent US10006918B2, “Fluorogenic hydrazine-substituted compounds” (LIFE TECHNOLOGIES CORPORATION, priority 2008, dated 2018).

Test: Aldehyde reactivity of compounds: fluorogenic reaction with acetaldehyde in phosphate buffer, excitation/emission spectra
Assay type: physicochemical
Experimental: Spectra were taken at pH 6 in a 50 mM phosphate buffer solution.
Spectra were taken at pH 6 in 50 mM phosphate buffer solution.
A sample of Compound 2 (5 mg, 0.0126 mmol) is dissolved in 10 ml of pH 6.5, 50 mmol phosphate buffer solution. To this non-fluorescent solution, is added 25 ul, 1 mol solution of acetaldehyde in water at room temperature. […] The reaction is complete in 10 minutes to give a stable […] analog. Its absorption max is at 548 nm and emission max is at 580 nm (see FIGS. 3A and B).

[1] = after reaction with acetaldehyde, pH 6.5 phosphate buffer
[2] = aldehyde-reacted, pH 6, 50 mM phosphate buffer, FIG. 3B

## NN=c1ccc2c(-c3ccccc3S(=O)(=O)O)c3ccc(NN)cc3oc-2c1 [Compound 2, 2-(6-hydrazinyl-3-hydrazono-3H-xanthen-9-yl)benzenesulfonate]
25 ul 1 mol acetaldehyde in water, room temperature, pH 6.5 phosphate buffer, within a few minutes
  fluorescence of solution after addition of acetaldehyde: highly fluorescent
acetaldehyde, pH 6, 50 mM phosphate buffer, FIG. 1
  change of fluorescence upon reaction with an aldehyde (emission spectra before and after contact with acetaldehyde): significant fluorescent increase
[1]
  absorption max of acetaldehyde reaction product: 548 nm
  emission max of acetaldehyde reaction product: 580 nm
[2]
  emission spectra maximum, aldehyde-reacted compound: 581 nm
  excitation maximum, aldehyde-reacted compound: 548 nm
Room temperature, pH 6.5, 50 mmol phosphate buffer
  time to complete reaction with acetaldehyde: 10 min
un-reacted dye, FIG. 3A
  excitation maximum, un-reacted compound: 519 nm
